In data set [1] the test system is GSK-3. Conditions: Ring et al. 2003 / Cline et al. 2002, cited from earlier work; for EC50: read-out: half-maximal effective concentration [EC50].
For data set [2] the following is noted: mouse, in vivo, ip, 30 mg/kg.
Method: (b) Blood glucose levels in peripheral blood of recipient mice following 5-week in vivo administration of 30 mg/kg GSK-3 inhibitor or vehicle control. Error bars represent SEM (n=6).

For `O=[N+]([O-])c1ccc(NCCNc2ncc(-c3ncc[nH]3)c(-c3ccc(Cl)cc3Cl)n2)nc1` [CHIR-837], in data set [1], the “selectivity for GSK-3” value was > 5,000 fold and the EC50 is 375 nM.
As for `Cc1c[nH]c(-c2cnc(NCCNc3ccc(C#N)cn3)nc2-c2ccc(Cl)cc2Cl)n1` [CHIR-911], the “glycemic state (blood glucose) of transplanted recipients” value in data set [2] is “maintaining a normoglycemic state”. Also, the EC50 in data set [1] was […].

These data come from patent publication US8372397B2, “Methods for regulation of stem cells” (priority 2004, dated 2013).
